# From patent US20150342954A1, “2-BENZYL, 3-(PYRIMIDIN-2-YL) SUBSTITUTED PYRAZOLES USEFUL AS SGC STIMULATORS” (IRONWOOD PHARMACEUTICALS, INC., priority 2011, published 2015)
# Like-named read-outs stand apart in the source and are kept apart here.
# Tests used:
# [1] = test system: lambs with acute pulmonary hypertension; settings: cited from earlier work; for pulmonary vasodilation / effect on mean arterial pressure / transpulmonary cGMP release / systemic arterial oxygenation: inhaled microparticles, awake lambs, U-46619 infusion; for pulmonary vasodilation: mean pulmonary arterial pressure 35 mm Hg
# [2] = target: T1, soluble guanylate cyclase (sGC) (Homo sapiens, UniProt Q02108+Q02153); assay: sGC-HEK-cGMP assay (run with SNP incubation); format: cell-based; settings: for Emax: 10 μM SNP, 100% = 30 μM BAY 41-2272 with 10 μM SNP, read-out: HEK assay Emax-unconstrained (Percent); for HEK MEC-10: concentration that would elicit 10% of the Emax in the presence of 10 μM SNP; for EC50: in the presence of 10 μM SNP
# T1 construct: endogenously expressing soluble guanylate cyclase (sGC); endogenous in cells; host or cells: HEK293
# T1 sequence (Q02153 1-619): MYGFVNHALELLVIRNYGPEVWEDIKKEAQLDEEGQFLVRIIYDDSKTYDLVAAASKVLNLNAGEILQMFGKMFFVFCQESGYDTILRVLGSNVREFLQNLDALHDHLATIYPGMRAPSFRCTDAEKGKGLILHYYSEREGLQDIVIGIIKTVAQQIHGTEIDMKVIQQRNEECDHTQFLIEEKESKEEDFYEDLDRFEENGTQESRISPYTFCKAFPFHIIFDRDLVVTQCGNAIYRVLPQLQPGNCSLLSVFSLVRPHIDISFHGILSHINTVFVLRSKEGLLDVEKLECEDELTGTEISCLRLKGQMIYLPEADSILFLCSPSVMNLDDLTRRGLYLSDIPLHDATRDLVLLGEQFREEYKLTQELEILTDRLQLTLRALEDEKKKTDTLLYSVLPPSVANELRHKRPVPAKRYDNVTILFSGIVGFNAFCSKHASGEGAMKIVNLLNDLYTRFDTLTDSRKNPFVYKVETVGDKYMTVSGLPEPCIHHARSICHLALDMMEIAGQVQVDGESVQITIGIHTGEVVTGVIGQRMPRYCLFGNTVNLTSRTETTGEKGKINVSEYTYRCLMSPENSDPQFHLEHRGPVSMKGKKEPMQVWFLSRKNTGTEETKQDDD
# T1 sequence (Q02108 1-690): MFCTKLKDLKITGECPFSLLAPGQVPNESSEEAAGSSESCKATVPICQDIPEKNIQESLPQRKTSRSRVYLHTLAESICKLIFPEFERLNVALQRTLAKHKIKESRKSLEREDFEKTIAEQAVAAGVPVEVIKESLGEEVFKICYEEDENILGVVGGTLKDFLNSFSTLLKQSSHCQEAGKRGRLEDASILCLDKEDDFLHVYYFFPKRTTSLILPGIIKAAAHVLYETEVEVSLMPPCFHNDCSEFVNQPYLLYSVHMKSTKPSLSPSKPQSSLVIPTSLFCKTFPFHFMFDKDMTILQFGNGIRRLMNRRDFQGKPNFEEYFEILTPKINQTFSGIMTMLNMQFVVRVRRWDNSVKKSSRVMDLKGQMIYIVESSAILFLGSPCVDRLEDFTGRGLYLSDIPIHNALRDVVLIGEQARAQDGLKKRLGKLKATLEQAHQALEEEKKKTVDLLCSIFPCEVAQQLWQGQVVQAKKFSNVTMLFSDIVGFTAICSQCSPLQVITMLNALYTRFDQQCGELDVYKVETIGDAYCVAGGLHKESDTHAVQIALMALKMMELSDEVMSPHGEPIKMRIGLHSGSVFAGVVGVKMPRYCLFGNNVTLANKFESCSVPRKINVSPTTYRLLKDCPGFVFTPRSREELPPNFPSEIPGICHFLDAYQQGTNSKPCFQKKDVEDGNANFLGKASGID
# Summary of the method: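 HEK293 cells with endogenous sGC were pre-treated 15 min at 37 °C with 0.5 mM IBMX, then exposed to test compound plus sodium nitroprusside for 10 min at 37 °C. Cells were lysed in 0.1 M HCl (4 °C, 30 min), and cGMP was quantified by LC/MS against a standard curve. EC50 values came from concentration-response curves.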
# Thoracic aortic rings = assay: Alternative thoracic aortic rings assay (Example 5; original resting tension as 100% inhibition); settings: rat thoracic aortic rings contracted with phenylephrine; for Aortic Ring Percent Relaxation at 1 μM: compound at 1 μM; for Aortic Ring Percent Relaxation at 3 μM: compound at 3 μM; for Aortic Ring Percent Relaxation at 10 μM: compound at 10 μM; for EC50: read-out: Aortic Ring EC50
# Method: Thoracic aortic rings were dissected from anesthetized (isoflurane) male Sprague-Dawley rats weighing 275-299 g. Tissues were immediately transferred to ice-cold Krebs-Henseleit solution, which had been aerated with 95% 02 and 5% CO2 for 30 minutes. Following removal of connective tissue, aortic sections were cut into 4 rings (˜2 mm each) and suspended on 2 L-shaped hooks, with one hook fixed at the bottom of the tissue bath (Schuler Organ Bath, Harvard Apparatus) and the other connected to a force transducer (F30 Force Transducer, Harvard Apparatus). Baths contained Krebs Henseleit solution (10 mL) heated to 37° C. and aerated with 95% 02 and 5% CO2. Rings were brought to an initial tension of 0.3-0.5 g and gradually raised to a resting tension of 1.0 g over 60 minutes. Rings were rinsed with Krebs Henseleit solution (heated to 37° C. and aerated with 95% 02 and 5% CO2) at 15 minute intervals until a stable baseline was obtained. Rings were considered to be stable after a resting tension of 1.0 g was maintained (for approximately 10 minutes) without need for adjustment. Rings were then contracted with 100 ng/mL phenylephrine by adding 100 μL of a 10 μg/mL phenylephrine stock solution. Tissues achieving a stable contraction were then treated in a cumulative, dose dependent manner with test compounds prepared in dimethylsulfoxide (DMSO). In some cases, tissues were rinsed three times over a 5 minute period with Krebs-Heinseleit's solution (heated to 37° C. and aerated with 95% 02 and 5% CO2), allowed to stabilize at baseline, and then used for characterization of other test articles or DMSO effects. All data were collected using the HSE-ACAD software provided by Harvard Apparatus. […] EC50 values were calculated from concentration-response curves generated with GraphPad Prism Software.
# Biological Activity Measurement by the Thoracic Aortic Rings Assay
# The biological data for some of a compound of Table I, in comparison with the known compound, BAY 41-2272, as the reference compound, determined by the thoracic aorta ring assay of Example 5 are presented in Table 6 below.
# [3] = target: T2, Human soluble guanylate cyclase enzyme (hsGC) (Homo sapiens, UniProt Q02108+Q02153); assay: Purified human sGC enzyme activity assay (without SNP); format: biochemical; settings: compound at 30 μM, absence of SNP, fold over DMSO control
# T2 construct: purchased Enzo Inc. ALX-201-177
# T2 sequence (Q02153 1-619): T1 sequence (Q02153 1-619)
# T2 sequence (Q02108 1-690): T1 sequence (Q02108 1-690)
# Summary of the method: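 Purified human sGC (5 ng) in 0.1 M Tris pH 8.0, 2 mM DTT, 2 mM MgCl2, 300 μM GTP, 1 mM IBMX, with compound at 10 or 30 μM final, 30 min at 37° C.; methanol-stopped. cGMP quantified against a standard curve; specific activity expressed as fold-change over DMSO control.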
# [4] = target: T2, Human soluble guanylate cyclase enzyme (hsGC); assay: Purified human sGC enzyme synergy assay in the presence of 1 μM sodium nitroprusside (SNP); format: biochemical; settings: compound at 30 μM, presence of 1 μM SNP
# Summary of the method: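 Purified hsGC (5 ng) incubated 30 min at 37 °C with compound (10 or 30 μM final) in Tris pH 8.0, 300 μM GTP, 1 mM IBMX, 2 mM MgCl2, with or without 1 μM SNP; stopped with cold methanol. cGMP quantified against standard curve; specific activity expressed as fold-change over DMSO control.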
# [5] = Table 3A, top of concentration-response curve not fitted to 100%
# [6] = Table 3D, read-out: HEK assay EC50
# [7] = top of concentration-response curve not fitted to 100%, Table 3D, read-out: HEK assay EC50-unconstrained
# [8] = Table 3B, top of concentration-response curve not fitted to 100%
# [9] = top of concentration-response curve not fitted to 100%, Table 3E, read-out: HEK assay EC50-unconstrained
"Emax [2, 5] [%]",HEK MEC-10 ([2]; Table 3D),"EC50 [2, 6] [µM]","EC50 [2, 7] [µM]",EC50 (Thoracic aortic rings) [µM],SMILES,pulmonary vasodilation [1],effect on mean arterial pressure [1],transpulmonary cGMP release [1],Aortic Ring Percent Relaxation at 1 μM (Thoracic aortic rings),Aortic Ring Percent Relaxation at 3 μM (Thoracic aortic rings),Aortic Ring Percent Relaxation at 10 μM (Thoracic aortic rings),also measured
–,–,–,–,–,Nc1nc(-c2nn(Cc3ccccc3F)c3ncccc23)ncc1C1CC1 [BAY 41-2272],dose dependent pulmonary vasodilation,without significant effect on mean arterial pressure,increased transpulmonary cGMP release,–,–,–,–
–,–,–,–,–,Nc1nc(-c2nn(Cc3ccccc3F)c3ncccc23)nc(N)c1N1CCOCC1 [BAY 41-8543],dose dependent pulmonary vasodilation,without significant effect on mean arterial pressure,increased transpulmonary cGMP release,–,–,–,"magnitude and duration of pulmonary vasodilation induced by iNO ([1]; after inhaling the microparticles, lambs): augmented; systemic arterial oxygenation [1]: increased systemic arterial oxygenation"
100 to 120,B (0.01 to <0.1 μM),< 20,0.01 to 0.5,< 2,"N#CC1(C(=O)Nc2cnc(-c3cc(-c4ncco4)n(Cc4ccccc4F)n3)nc2N)CC1 [Compound 47, N-(4-amino-2-(1-(2-fluorobenzyl)-5-(oxazol-2-yl)-1H-pyrazol-3-yl)pyrimidin-5-yl)-1-cyanocyclopropanecarboxamide]",–,–,–,E (60 or <80%),F (80 to <100%),G (100 to <120%),–
60 to 80,B (0.01 to <0.1 μM),< 20,0.01 to 0.5,< 2,Oc1nc(-c2cc(-c3ccon3)n(Cc3cccc(F)c3F)n2)ncc1F [Compound 1],–,–,–,F (80 to <100%),G (100 to <120%),G (100 to <120%),–
–,–,–,–,–,CC(=O)Nc1cnc(-c2cc(-c3ccon3)n(Cc3cccc(F)c3F)n2)nc1N [Compound 80],–,–,–,–,–,–,"Emax [2, 8]: 40 to 60%; HEK MEC-10 ([2]; Table 3E): C (0.1 to <1 μM); EC50 ([2]; Table 3E, read-out: HEK assay EC50): 40 to 60 µM; EC50 [2, 9]: 0.01 to 0.5 µM; Enzyme Activity (increase at 30 μM without SNP) ([3]; Table 5B): D (10 or <20 fold increase); Enzyme Activity (increase at 30 μM with SNP) ([4]; Table 5B): E (20 to 30 fold increase)"
80 to 100,C (0.1 to <1 μM),< 20,1 to 5,–,Nc1nc(-c2cc(-c3ncco3)n(Cc3ccccc3F)n2)ncc1NC(=O)C1(F)CC1 [Compound 31],–,–,–,–,–,–,Enzyme Activity (increase at 30 μM without SNP) ([3]; Table 5A): B (2 to <5 fold increase); Enzyme Activity (increase at 30 μM with SNP) ([4]; Table 5A): D (10 or <20 fold increase)
–,–,–,–,–,Cc1cccc(Cn2nc(-c3ncc(F)c(O)n3)cc2-c2ccon2)c1F [Compound 86],–,–,–,–,–,–,"Emax [2, 8]: 60 to 80%; EC50 [2, 9]: 1 to 5 µM; Enzyme Activity (increase at 30 μM without SNP) ([3]; Table 5B): C (5 to <10 fold increase); Enzyme Activity (increase at 30 μM with SNP) ([4]; Table 5B): D (10 or <20 fold increase)"
–,–,–,–,–,O=C(O)CCCCN(CCc1ccccc1OCc1ccc(CCc2ccccc2)cc1)Cc1ccc(C(=O)O)cc1 [BAY 58-2667],dose dependent pulmonary vasodilation,without significant effect on mean arterial pressure,increased transpulmonary cGMP release,–,–,–,"pulmonary vasodilation and transpulmonary cGMP release after treatment with ODQ ([1]; inhaled microparticles after intravenous ODQ, lambs): greatly enhanced; systemic arterial oxygenation [1]: increased systemic arterial oxygenation"
100 to 120,A (0.001 to <0.01 μM),< 20,0.01 to 0.5,< 2,CC1(C(=O)Nc2cnc(-c3cc(-c4ccon4)n(Cc4cccc(F)c4F)n3)nc2N)CC1 [Compound 10],–,–,–,G (100 to <120%),G (100 to <120%),G (100 to <120%),–

SMILES,"Emax [2, 5] [%]",HEK MEC-10 ([2]; Table 3D),"EC50 [2, 6] [µM]","EC50 [2, 7] [µM]",EC50 (Thoracic aortic rings) [µM],pulmonary vasodilation [1],effect on mean arterial pressure [1],transpulmonary cGMP release [1],Aortic Ring Percent Relaxation at 1 μM (Thoracic aortic rings),Aortic Ring Percent Relaxation at 3 μM (Thoracic aortic rings),Aortic Ring Percent Relaxation at 10 μM (Thoracic aortic rings),also measured
O=c1[nH]c(-c2cc(-c3ccon3)n(Cc3ccccc3F)n2)ncc1S(=O)(=O)N1CCOCC1 [Compound 60],80 to 100,C (0.1 to <1 μM),< 20,0.5 to 1,–,–,–,–,–,–,–,Enzyme Activity (increase at 30 μM without SNP) ([3]; Table 5A): B (2 to <5 fold increase); Enzyme Activity (increase at 30 μM with SNP) ([4]; Table 5A): D (10 or <20 fold increase)
